Results from patent US20030206946A1, “Methods for therapy of connective tissue disease” (priority 2002, published 2003).

Tests used:
[1] = system: adjuvant arthritis, right hind paw (with CFA); assay: Adjuvant arthritis (CFA), Acute Phase, right hind paw volume; assay type: in vivo, Long Evans rats
Experimental: (§1) A well-ground suspension of killed Mycobacterium tuberculosis (DIFCO, USA; 0.3 mg in 0.1 ml of light mineral oil; Complete Freund's Adjuvant, CFA) was administered into the subplantar region of the right hind paw immediately after first dosing on first day (denoted day 1). Hind paw volume was measured by Plethsmometer (Cat. No. 7150, UGO BASILE, Italy) and Water cell (25 mm diameter, Cat. No. 7157, UGO BASILE, Italy) on day 0 (before CFA treated), 1, 5, 10, and 15 after CFA of right paw (with CFA), and day 0, 14, and 18 of left paw (without CFA); rats were weighed just before first dose and 1 hour after final dose. Right hind paw volume (Acute Phase) was measured 4 hours after CFA treated (denoted as day 1) and day 5, day 10 and day 15 after CFA. The contralateral left hind paw volume (Delayed Phase) was measured at day 14 and day 18. The inflammatory activity in this model was denoted by values calculated during the Acute Phase as well as the Delayed Phase.
(§2) The animal model for connective tissue disease was established according to the report by Winter C A, et al., Arthritis Rheum. 1966, 9:394-404. Groups of 5 Long Evans rats weighing 150±20 g were used. The 10% of phenylbutyrate cream and 1% of trichostatin A ointment at a dose of 200 mg/paw and 10 mg/paw, respectively, were applied topically twice daily for 18 consecutive days. A well-ground suspension of killed Mycobacterium tuberculosis (DIFCO, USA; 0.3 mg in 0.1 ml of light mineral oil; Complete Freund's Adjuvant, CFA) was administered into the subplantar region of the right hind paw immediately after first dosing on first day (denoted day 1). Hind paw volume was measured by Plethsmometer (Cat. No. 7150, UGO BASILE, Italy) and Water cell (25 mm diameter, Cat. No. 7157, UGO BASILE, Italy) on day 0 (before CFA treated), 1, 5, 10, and 15 after CFA of right paw (with CFA), and day 0, 14, and 18 of left paw (without CFA); rats were weighed just before first dose and 1 hour after final dose. Anti-inflammatory activity in this model was denoted by values calculated during the Acute Phase (the right hind paw volume) as well as the Delayed Phase (the contralateral left hind paw volume). For CFA-injected vehicle control rats, animals were also weighed on day 0 and day 18; CFA-injected vehicle control animals generally gain between 20 to 40 g body weight over this time period. A 30% or more reduction in paw volume relative to vehicle treated controls was considered significant.

[2] = system: adjuvant arthritis, left hind paw (without CFA); assay: Adjuvant arthritis (CFA), Delayed Phase, contralateral left hind paw volume; assay type: in vivo, Long Evans rats; conditions: for systematic inhibition effect in delayed phase (left paw), in words: summary of Table 2
Experimental: as §1, §2

[3] = system: acetylated histone H3 in synovial fibroblasts from adjuvant arthritis; assay: Accumulation of acetylated histones in synovial fibroblasts (western blot, immunofluorescence with anti-acetylated H3 antibody); assay type: cell-based, rats; conditions: phenylbutyrate 2 mM, trichostatin A 200 nM; 6 h for immunofluorescence
Experimental: At day 10, synovial samples were obtained from the established adjuvant arthritis rats. The collected synovial tissues were digested with 5 mg/ml collagenase (sigma) and 1.5 mg/ml DNase (sigma), and were passed through a wire mesh to prepare isolated cells. Cells (0.5×10^6) were placed in 10-cm dishes with 10 ml RPMI 1640 medium (Gibco) supplemented with 10% fetal calf serum, 2 mM L-glutamine, 50 U/ml penicillin and […] streptomycin. Cells were detached with trypsin-EDTA solution and passed for subculture when 90% confluency was reached. The synovial cells used were of passage 5. Proliferating synovial fibroblasts from adjuvant arthritis were treated with phenylbutyrate or trichostatin A, and proliferation was determined by incorporation of ^3H-thymidine, which was present during last 24 hours of culture. 4-phenylbutyrate (Merck) dissolved in sterile water with NaOH and adjusted to pH 7.2, or sodium phenylbutyrate (Triple Crown, U.S.A) dissolved in sterile water or trichostatin A (sigma) dissolved in ethanol were used. […] Hyperacetylated histones were detected by use of the antibody that specifically recognizes the hyperacetylated form of histone H3 (upstate biotechnology). […] The results were expressed as percentage value relative to the control culture (no drug addition). […]

[4] = system: synovial fibroblasts from adjuvant arthritis; assay: Proliferation of synovial fibroblasts by 3H-thymidine incorporation; assay type: cell-based, rats; conditions: 3H-thymidine present during last 24 hours of culture; relative to control culture
Experimental: At day 10, synovial samples were obtained from the established adjuvant arthritis rats. The collected synovial tissues were digested with 5 mg/ml collagenase (sigma) and 1.5 mg/ml DNase (sigma), and were passed through a wire mesh to prepare isolated cells. Cells (0.5×10^6) were placed in 10-cm dishes with 10 ml RPMI 1640 medium (Gibco) supplemented with 10% fetal calf serum, 2 mM L-glutamine, 50 U/ml penicillin and […] streptomycin. Cells were detached with trypsin-EDTA solution and passed for subculture when 90% confluency was reached. The synovial cells used were of passage 5. Proliferating synovial fibroblasts from adjuvant arthritis were treated with phenylbutyrate or trichostatin A, and proliferation was determined by incorporation of ^3H-thymidine, which was present during last 24 hours of culture. 4-phenylbutyrate (Merck) dissolved in sterile water with NaOH and adjusted to pH 7.2, or sodium phenylbutyrate (Triple Crown, U.S.A) dissolved in sterile water or trichostatin A (sigma) dissolved in ethanol were used. […] Hyperacetylated histones were detected by use of the antibody that specifically recognizes the hyperacetylated form of histone H3 (upstate biotechnology).

[5] = system: p16 and p21 in synovial fibroblasts from adjuvant arthritis; assay: Western blot of p16 and p21 in synovial fibroblasts; assay type: cell-based, rats; conditions: phenylbutyrate 2 mM, trichostatin A 200 nM; 12 h
[6] = system: inflammation of skin, joints and soft tissues in connective tissue disease; assay: Gross views and histology of paw joints, skin and soft tissues in adjuvant arthritis; assay type: in vivo, Long Evans rats; conditions: topical 10% phenylbutyrate cream or 1% trichostatin A ointment vs vehicle
Experimental: as §2, with “A 30% or more reduction in paw volume relative to vehicle treated controls was considered significant.” left out

[7] = system: p16 in the synovium of connective tissue disease; assay: p16 immunohistochemistry of synovium in adjuvant arthritis; assay type: in vivo, Long Evans rats; conditions: treated vs vehicle group
From the text: FIGS. 8G-[…] are from lower magnification to higher magnification showing the severe synovial hyperplasia and panus formation in connective tissue disease deteriorating the cartilage and bone of joints (left panel: H&E stain). In contrast, there is no p16 staining in the invasive synovium of the vehicle group when compared to the synovium in the treated group (right panel: immunohistochemistry).

[8] = system: TNF-α in the connective tissues of connective tissue disease; assay: TNF-α immunohistochemistry of connective tissues in adjuvant arthritis; assay type: in vivo, Long Evans rats; conditions: treated vs vehicle group
histone deacetylases = conditions: background statement; cited from earlier work
[9] = Acute Phase, right hind paw volume, topical twice daily x 18 days or PO x 5, parentheses mark 30% or more

Row | Structure (SMILES) | % Inhibition relative to vehicle treated, Day (5-0) [1, 9] | % Inhibition relative to vehicle treated, Day (10-0) [1, 9] | % Inhibition relative to vehicle treated, Day (15-0) [1, 9] | % Inhibition relative to vehicle treated, Day (1-0) ([1]; Acute Phase, unilateral ankle joint/right hind paw volume, topical twice daily x 18 days or PO x 5, parentheses mark 30% or more (significant)) | anti-inflammatory effect in Acute Phase, in words ([1]; right hind paw, summary of Table 2) | % Inhibition relative to vehicle treated, Day (14-0) ([2]; Delayed Phase, contralateral ankle joint/left hind paw volume, parentheses mark 30% or more) | % Inhibition relative to vehicle treated, Day (18-14) ([2]; Delayed Phase, contralateral left hind paw volume) | % Inhibition relative to vehicle treated, Day (18-0) ([2]; Delayed Phase, contralateral left hind paw volume, parentheses mark 30% or more) | systematic inhibition effect in delayed phase (left paw), in words [2] | accumulation of acetylated histones [3] | growth inhibition of synovial fibroblasts [4] | upregulation of p16 and p21, cell cycle inhibitors [5] | suppression of connective tissue disease (swelling, pannus, synovial hyperplasia, lymphocyte infiltration), in words [6] | p16 expression in synovium [7] | TNF-α staining in connective tissues [8] | concentration range of histone deacetylase inhibition (histone deacetylases)
1 | C[C@]12CCC(=O)C=C1CC[C@@H]1[C@@H]2[C@@H](O)C[C@@]2(C)[C@H]1CC[C@]2(O)C(=O)CO [Hydrocortisone, hydrocortisone] | (35) % | (39) % | 23% | (35) % | marked inhibition effect of hydrocortisone is shown on day 1; however, the effect reduces after day 10 | (30) % | 20% | 27% | partially shown |  |  |  |  |  |  | 
2 | O=C(O)CCCc1ccccc1 [phenylbutyrate, 4-phenylbutyrate] |  |  |  |  |  |  |  |  | not significant | induce an accumulation of acetylated histones | dose- and time- dependent growth inhibition | induce upregulation of p16 and p21 | pannus formation is blocked | upregulated | only small amount of TNF-α was stained in the skin | millimolar concentrations
3 | CC(/C=C/C(=O)NO)=C\[C@@H](C)C(=O)c1ccc(N(C)C)cc1 [trichostatin A] |  |  |  |  |  |  |  |  | not significant | induce an accumulation of acetylated histones | dose- and time- dependent growth inhibition | induce upregulation of p16 and p21 |  | upregulates p16 expression | no TNF-α staining in soft tissues | submicromolar range
